Consider one compound from patent publication US12162858B2, “Quinoline derivatives as inhibitors of AXL/MER RTK and CSF1R” (QURIENT CO., LTD., priority 2018, dated 2024).

The target of the assay is T1, Axl (Ba/F3 cells) (Homo sapiens, UniProt P30530).
T1 sequence (P30530 1-894): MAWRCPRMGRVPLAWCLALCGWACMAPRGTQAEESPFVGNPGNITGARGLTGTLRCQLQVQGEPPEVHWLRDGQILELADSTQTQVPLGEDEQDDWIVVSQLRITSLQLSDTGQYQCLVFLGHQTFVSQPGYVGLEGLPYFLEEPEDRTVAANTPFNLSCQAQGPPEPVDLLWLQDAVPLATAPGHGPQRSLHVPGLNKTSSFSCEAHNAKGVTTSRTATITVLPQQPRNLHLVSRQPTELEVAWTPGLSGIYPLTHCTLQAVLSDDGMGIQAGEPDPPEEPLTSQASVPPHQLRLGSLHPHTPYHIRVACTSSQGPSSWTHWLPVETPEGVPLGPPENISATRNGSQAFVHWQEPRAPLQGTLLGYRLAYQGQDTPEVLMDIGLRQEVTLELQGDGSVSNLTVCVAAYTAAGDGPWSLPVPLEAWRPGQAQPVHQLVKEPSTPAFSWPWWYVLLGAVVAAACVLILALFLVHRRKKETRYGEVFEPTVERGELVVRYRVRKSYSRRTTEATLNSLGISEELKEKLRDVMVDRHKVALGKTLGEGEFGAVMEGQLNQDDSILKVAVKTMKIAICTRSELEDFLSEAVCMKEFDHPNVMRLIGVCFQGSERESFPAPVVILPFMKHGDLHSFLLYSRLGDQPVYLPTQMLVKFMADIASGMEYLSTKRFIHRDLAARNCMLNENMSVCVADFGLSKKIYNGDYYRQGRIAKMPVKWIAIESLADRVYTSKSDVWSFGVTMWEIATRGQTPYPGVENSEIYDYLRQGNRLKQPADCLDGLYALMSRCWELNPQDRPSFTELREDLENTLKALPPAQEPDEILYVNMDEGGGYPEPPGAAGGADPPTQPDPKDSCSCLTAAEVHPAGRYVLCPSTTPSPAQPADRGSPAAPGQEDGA
Description: BaF3 viability assay, Axl-dependent cells. The assay is classed as cell-based. To be noted: read-out: Cellular Axl activity by Ba/F3 assay (IC50). From the text:
In this system, IL-3-dependent Ba/F3 cells are modified to express an activated recombinant kinase (in the present case Axl, Mer and CSF1R). Following removal of IL-3, the modified cells are dependent on the activity of the recombinant kinase for survival and proliferation. Inhibition of such kinase(s) through test compounds reduces survival and proliferation of the cells.
Cell lines were maintained in growth media (GM) consisting of RPMI 1640 supplemented with 10% FBS. Cells in logarithmic-phase growth were harvested and 5,000 cells were distributed into each well of a 384-well plate in 50 μl GM. Parental cells (or experimental assays where specified) were further supplemented with 2 ng/ml IL-3 to support cell growth and survival. Fifty nanoliters of the indicated reference standard or experimental compound were added to appropriate wells (in duplicate) and the cells were cultured for 48 h at 37° C./5% CO2. Viability was determined by adding 10 μl Cell Titer Glo and measuring luminescence, which is reported as relative light units (RLU) measured in counts per second. The following calculations and formulas are used for data analysis using GraphPad Prism software: The curve fitting was made using the Dose response curves-Inhibition.

Consider `COc1cc2nccc(Oc3ccc(NC(=O)c4nn(C5CC5)cc4OCC(F)(F)F)nc3)c2cc1OC` [Compound 5], for which the GI50 was less than 1000 nM.
